Test systems include Proteus mirabilis; Klebsiella pneumoniae; Micrococcus luteus; Pseudomonas aeruginosa; Salmonella typhimurium; Shigella dysenteriae; Bacillus subtilis; Escherichia coli; Staphylococcus aureus; Escherichia coli JW0013; Escherichia coli BL21.
Holding throughout (assay): ≥ marks a high value that may be exact or a test limit, other limits are often not marked, values filed in µg/mL are converted to µM
The subject of assay [1] is Staphylococcus epidermidis.
Assay [2] deals with Pectobacterium carotovorum subsp. carotovorum DSM 30168.
Assay [3] deals with Pseudomonas corrugata DSM 7228.
Assay [4] has as its system Clavibacter michiganensis subsp. michiganensis DSM 46294.
Assay [5] concerns Pseudomonas syringae pv. tomato DC3000.
Assay [6] deals with Pseudomonas syringae pv. syringae DSM 10604.
Assay [7] has as its system Xanthomonas vesicatoria DSM 50861.
Assay [8] concerns Pseudomonas aeruginosa PAO1.

Each structure is given as a SMILES string. Converted amounts (≈) assume the structure as drawn.

Our source for the MIC values is DBAASP.

What is called MIC is the lowest concentration that inhibits growth of the organism. A higher MIC goes with a need for much substance.

In the case of `CC(C)C[C@H](NC(=O)[C@H](C)NC(=O)CNC(=O)[C@H](CC(C)C)NC(=O)[C@@H](N)Cc1ccccc1)C(=O)N[C@@H](Cc1ccccc1)C(=O)N[C@@H](CCCCN)C(=O)N[C@@H](CCCCN)C(=O)N[C@@H](C)C(=O)N[C@@H](CO)C(=O)N[C@@H](CCCCN)C(=O)O` [FLGALFKKASK], the MIC was ≥ 165 µM against Proteus mirabilis; > 165 µM with Klebsiella pneumoniae; 10.3 µM (≈ 12.5 µg/mL) in the assay on Micrococcus luteus; > 165 µM with Pseudomonas aeruginosa; ≥ 165 µM in the assay with Salmonella typhimurium; ≥ 165 µM against Shigella dysenteriae. Besides, the MIC against Bacillus subtilis was ≥ 82.7 µM; in assay [1], ≥ 165 µM; in the assay with Escherichia coli, > 165 µM; against Staphylococcus aureus, 165 µM (≈ 200 µg/mL).
For the compound `CC(C)C[C@H](NC(=O)[C@H](C)NC(=O)CNC(=O)[C@H](CC(C)C)NC(=O)[C@@H](N)Cc1ccccc1)C(=O)N[C@@H](Cc1ccccc1)C(=O)N[C@@H](CCCCN)C(=O)N[C@H](C(=O)N[C@@H](C)C(=O)O)C(C)C` [FLGALFKVA], the MIC in the assay on Proteus mirabilis is ≥ 207 µM; in the assay with Klebsiella pneumoniae, > 207 µM; against Micrococcus luteus, ≥ 207 µM; in the assay with Pseudomonas aeruginosa, > 207 µM; in the assay on Salmonella typhimurium, ≥ 207 µM; with Shigella dysenteriae, ≥ 207 µM. Moreover, the MIC against Bacillus subtilis was ≥ 207 µM; in assay [1], ≥ 207 µM; in the assay with Escherichia coli it was > 207 µM; with Staphylococcus aureus, > 207 µM.
For `CC(C)C[C@H](NC(=O)[C@H](C)NC(=O)CNC(=O)[C@H](CC(C)C)NC(=O)[C@@H](N)Cc1ccccc1)C(=O)N[C@@H](Cc1c[nH]c2ccccc12)C(=O)N[C@@H](CCCCN)C(=O)N[C@H](C(=O)N[C@@H](C)C(=O)N[C@@H](CO)C(=O)N[C@@H](CCCCN)C(=O)O)C(C)C` [FLGALWKVASK], the MIC in the assay with Proteus mirabilis was ≥ 164 µM; in the assay on Klebsiella pneumoniae, 82 µM (≈ 100 µg/mL); against Micrococcus luteus it was ≥ 164 µM; in the assay with Pseudomonas aeruginosa it was > 164 µM; in the assay on Salmonella typhimurium, ≥ 164 µM; in the assay with Shigella dysenteriae it was ≥ 164 µM. For the same compound, the MIC was ≥ 164 µM in the assay on Bacillus subtilis, ≥ 164 µM in assay [1], 164 µM (≈ 200 µg/mL) in the assay with Escherichia coli and 82 µM (≈ 100 µg/mL) in the assay on Staphylococcus aureus.
For the compound `CC[C@H](C)[C@H](NC(=O)[C@H](CCCN=C(N)N)NC(=O)[C@H](CCCN=C(N)N)NC(=O)[C@@H]1CCCN1C(=O)[C@@H]1CCCN1C(=O)[C@H](CCCN=C(N)N)NC(=O)[C@@H]1CCCN1C(=O)[C@H](CCCN=C(N)N)NC(=O)[C@@H]1CCCN1C(=O)[C@H](CC(C)C)NC(=O)[C@H](Cc1ccc(O)cc1)NC(=O)[C@@H]1CCCN1C(=O)[C@@H]1CCCN1C(=O)[C@H](CCCCN)NC(=O)[C@H](CC(=O)O)NC(=O)[C@@H](N)CCCCN)C(=O)N[C@@H](Cc1ccc(O)cc1)C(=O)N[C@@H](CC(N)=O)C(=O)N[C@@H](CCCN=C(N)N)C(N)=O` [KDKPPYLPRPRPPRRIYNR], the MIC with Escherichia coli JW0013 turned out to be 1.98 µM (≈ 4.8 µg/mL).
For `CC(C)C[C@H](NC(=O)[C@H](C)NC(=O)[C@H](CC(C)C)NC(=O)[C@H](CCCN=C(N)N)NC(=O)[C@H](CCCN=C(N)N)NC(=O)[C@@H](N)CCCCN)C(=O)N[C@@H](Cc1ccccc1)C(=O)N[C@@H](CCCN=C(N)N)C(=O)N[C@@H](C)C(=O)N[C@@H](Cc1ccccc1)C(=O)N[C@@H](CCCN=C(N)N)C(=O)N[C@@H](CC(C)C)C(=O)N[C@@H](C)C(=O)N[C@@H](CC(C)C)C(=O)N[C@@H](CCCCN)C(=O)N[C@@H](CO)C(=O)N[C@H](C(=O)N[C@@H](CC(C)C)C(=O)N[C@@H](CCCCN)C(=O)N[C@@H](CCCCN)C(N)=O)C(C)C` [KRRLALFRAFRLALKSVLKK], the MIC in assay [2] was determined as 4.14 µM (≈ 10 µg/mL); in assay [3], 0.103 µM (≈ 0.25 µg/mL); in [4], 0.0414 µM (≈ 0.0999 µg/mL); in assay [5] it was 0.414 µM (≈ 1 µg/mL); in assay [6] it was 4.14 µM (≈ 10 µg/mL); in assay [7], 0.0414 µM (≈ 0.0999 µg/mL).
For the compound `NCCCC[C@H](NC(=O)[C@H](Cc1ccccc1)NC(=O)[C@H](Cc1ccccc1)NC(=O)[C@H](CCCCN)NC(=O)[C@H](Cc1ccccc1)NC(=O)[C@H](CCCCN)NC(=O)[C@H](CCCCN)NC(=O)[C@H](CCCCN)NC(=O)[C@@H](N)CCCN=C(N)N)C(=O)N[C@@H](CCCN=C(N)N)C(=O)N[C@@H](Cc1ccccc1)C(=O)N[C@@H](Cc1ccccc1)C(N)=O` [RKKKFKFFKRFF], the MIC in assay [2] came to 5.86 µM (≈ 9.99 µg/mL); in [3], 0.0586 µM (≈ 0.1 µg/mL); in assay [4], 0.146 µM (≈ 0.25 µg/mL); in assay [5], 1.46 µM (≈ 2.5 µg/mL); in [6] it was 0.0586 µM (≈ 0.1 µg/mL); in [7], 0.293 µM (≈ 0.5 µg/mL).
Regarding `CC[C@H](C)[C@H](NC(=O)[C@H](CCCN=C(N)N)NC(=O)[C@H](CCCN=C(N)N)NC(=O)[C@@H]1CCCN1C(=O)[C@@H]1CCCN1C(=O)[C@H](CCCN=C(N)N)NC(=O)[C@@H]1CCCN1C(=O)[C@H](CCCN=C(N)N)NC(=O)[C@@H]1CCCN1C(=O)[C@H](CC(C)C)NC(=O)[C@H](Cc1ccc(O)cc1)NC(=O)[C@H](CC(N)=O)NC(=O)[C@@H]1CCCN1C(=O)[C@H](CCCCN)NC(=O)[C@H](CC(=O)O)NC(=O)[C@@H](N)C(C)C)C(=O)N[C@@H](Cc1ccc(O)cc1)C(=O)N[C@@H](CC(N)=O)C(=O)N[C@@H](CCCN=C(N)N)C(N)=O` [VDKPNYLPRPRPPRRIYNR], the MIC in the assay with Escherichia coli JW0013 was 1.99 µM (≈ 4.8 µg/mL).
The compound `CC[C@H](C)[C@H](NC(=O)[C@H](CCCN=C(N)N)NC(=O)[C@H](CCCN=C(N)N)NC(=O)[C@@H]1CCCN1C(=O)[C@@H]1CCCN1C(=O)[C@H](CCCN=C(N)N)NC(=O)[C@@H]1CCCN1C(=O)[C@H](CCCN=C(N)N)NC(=O)[C@@H]1CCCN1C(=O)[C@H](CC(C)C)NC(=O)[C@H](Cc1ccc(O)cc1)NC(=O)[C@@H]1CCCN1C(=O)[C@H](CCC(N)=O)NC(=O)[C@H](CCCCN)NC(=O)[C@H](CC(=O)O)NC(=O)[C@@H](N)C(C)C)C(=O)N[C@@H](Cc1ccc(O)cc1)C(=O)N[C@@H](CC(N)=O)C(=O)N[C@@H](CCCN=C(N)N)C(N)=O` [VDKQPYLPRPRPPRRIYNR] had an MIC against Escherichia coli JW0013 of 1.28 µM (≈ 3.1 µg/mL).
In the case of `CC[C@H](C)[C@H](NC(=O)[C@H](CCCN=C(N)N)NC(=O)[C@H](CCCN=C(N)N)NC(=O)[C@@H]1CCCN1C(=O)[C@@H]1CCCN1C(=O)[C@H](CCCN=C(N)N)NC(=O)[C@@H]1CCCN1C(=O)[C@H](CCCN=C(N)N)NC(=O)[C@@H]1CCCN1C(=O)[C@H](CCCCN)NC(=O)[C@H](Cc1ccc(O)cc1)NC(=O)[C@H](Cc1cnc[nH]1)NC(=O)[C@H](CCCN=C(N)N)NC(=O)[C@H](CCCCN)NC(=O)[C@H](CC(=O)O)NC(=O)[C@@H](N)C(C)C)C(=O)N[C@@H](Cc1ccc(O)cc1)C(=O)N[C@@H](CC(N)=O)C(=O)N[C@@H](CCCN=C(N)N)C(N)=O` [VDKRHYKPRPRPPRRIYNR], the MIC against Escherichia coli JW0013 came out at 0.519 µM (≈ 1.3 µg/mL).
On the same count and under the same terms, for `CC[C@H](C)[C@H](NC(=O)[C@H](CCCN=C(N)N)NC(=O)[C@H](CCCN=C(N)N)NC(=O)[C@@H]1CCCN1C(=O)[C@@H]1CCCN1C(=O)[C@H](CCCN=C(N)N)NC(=O)[C@@H]1CCCN1C(=O)[C@H](CCCN=C(N)N)NC(=O)[C@@H]1CCCN1C(=O)[C@H](CC(C)C)NC(=O)[C@H](Cc1ccc(O)cc1)NC(=O)[C@H](Cc1cnc[nH]1)NC(=O)[C@H](CCCN=C(N)N)NC(=O)[C@H](CCCCN)NC(=O)[C@H](CC(=O)O)NC(=O)[C@@H](N)C(C)C)C(=O)N[C@@H](Cc1ccc(O)cc1)C(=O)N[C@@H](CC(N)=O)C(=O)N[C@@H](CCCN=C(N)N)C(N)=O` [VDKRHYLPRPRPPRRIYNR] the value was 0.683 µM (≈ 1.7 µg/mL).
For `CC[C@H](C)[C@H](NC(=O)[C@H](C)NC(=O)[C@H](Cc1ccccc1)NC(=O)[C@H](CCCCN)NC(=O)[C@@H](N)C(C)C)C(=O)N[C@@H](CCCCN)C(=O)N[C@@H](CCCCN)C(=O)N[C@H](C(=O)NCC(=O)N[C@@H](CCCCN)C(=O)N[C@@H](CCCCN)C(=O)N[C@@H](C)C(=O)N[C@@H](C)C(=O)N[C@@H](CCCCN)C(=O)N[C@@H](CCCCN)C(=O)N[C@H](C(=O)N[C@H](C(=O)N[C@H](C(=O)N[C@@H](CCCCN)C(=O)N[C@@H](C)C(=O)O)C(C)C)[C@@H](C)CC)C(C)C)[C@@H](C)CC` [VKFAIKKIGKKAAKKVIVKA], the MIC against Escherichia coli BL21 is ≥ 128 µM; in assay [8] it was 32 µM (≈ 69.4 µg/mL).
